Measured values taken from publication PMC9228412, “Synthesis and Activity of Triazole-Adenosine Analogs as Protein Arginine Methyltransferase 5 Inhibitors” (Molecules, 2022).
Read-outs that look alike come from different tables or passages of the source. Blank lines part the entries; values can stand above or below the compound they belong to.

Assays:
PRMT5 [1] = details: cited from earlier work
PRMT5 [2] = molecular target: T1, PRMT5 (Homo sapiens, UniProt O14744); assay: scintillation proximity assay (SPA) of PRMT5 methyltransferase activity; format: biochemical; details: for remaining activity at 10 µM: 0.5 h, remaining activity of the enzyme, single point SPA test, inhibitor 10 μM, read-out: Relative Activity of PRMT5 at 10 μM
T1 construct: His-tag; made in house; host or cells: Sf9 insect cells (Bac-to-Bac baculovirus)
T1 sequence (O14744 whole entry): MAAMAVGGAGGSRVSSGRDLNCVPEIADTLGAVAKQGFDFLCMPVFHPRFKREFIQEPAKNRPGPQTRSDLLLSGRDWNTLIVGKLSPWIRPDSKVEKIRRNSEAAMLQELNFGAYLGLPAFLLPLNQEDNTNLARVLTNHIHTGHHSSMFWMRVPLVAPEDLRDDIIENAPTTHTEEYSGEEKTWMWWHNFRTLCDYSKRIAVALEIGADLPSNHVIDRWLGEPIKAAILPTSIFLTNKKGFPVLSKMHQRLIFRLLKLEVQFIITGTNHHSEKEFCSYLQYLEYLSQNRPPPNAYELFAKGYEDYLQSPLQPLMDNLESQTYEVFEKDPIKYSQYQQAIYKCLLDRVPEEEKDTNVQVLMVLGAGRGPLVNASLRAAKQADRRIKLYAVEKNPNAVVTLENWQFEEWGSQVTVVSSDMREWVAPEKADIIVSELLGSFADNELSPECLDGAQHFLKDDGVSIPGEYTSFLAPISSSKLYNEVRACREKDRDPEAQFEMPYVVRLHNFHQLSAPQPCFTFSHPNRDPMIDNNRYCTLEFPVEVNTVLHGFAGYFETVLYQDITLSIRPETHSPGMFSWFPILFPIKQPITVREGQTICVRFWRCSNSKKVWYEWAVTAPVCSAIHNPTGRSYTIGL
T1 sequence (Q9BQA1 whole entry partner): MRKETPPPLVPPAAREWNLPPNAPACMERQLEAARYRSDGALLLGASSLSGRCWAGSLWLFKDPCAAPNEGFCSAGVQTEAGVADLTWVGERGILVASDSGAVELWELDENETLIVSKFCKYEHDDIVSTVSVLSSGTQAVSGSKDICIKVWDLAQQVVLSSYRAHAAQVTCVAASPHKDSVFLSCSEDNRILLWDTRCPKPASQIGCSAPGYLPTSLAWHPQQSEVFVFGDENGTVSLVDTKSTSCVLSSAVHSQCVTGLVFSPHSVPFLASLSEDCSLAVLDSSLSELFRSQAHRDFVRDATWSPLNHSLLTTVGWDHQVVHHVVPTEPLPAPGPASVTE
Description: (§1) The methyltransferase activities of PRMT5 and PRMT1 in the absence and presence of the synthetic inhibitors were measured by using the scintillation proximity assay (SPA) protocol (Table 1). In the initial test, the inhibitor concentration was set at 10 μM. H4(1–20)K20biotin [Ac-[…](biotin)-NH2] was used as the peptide substrate, at a final concentration of 0.5 μM. ^3H-SAM was used as the methyl donor at 0.5 μM. SAH was used as a control inhibitor. […] Analysis of the biochemical activity results against PRMT5 disclosed a few interesting structure–activity relationship (SAR) trends. […] If the hydroxyl group of 3 was changed to an amine (6), the potency was improved; however, the selectivity was abolished. Generally, compounds that contained positive charges (6, 20, 21, 22, 24) near the triazole ring had further improved potencies.
Human recombinant His-tag PRMT5 was co-expressed with His-tag MEP50 using the Bac-to-Bac baculovirus expression system (Invitrogen, Life Technologies, Carlsbad, CA, USA) as previously described. Briefly, pFB-LIC-Bse-PRMT5 and pFB-LIC-Bse-MEP50 were heat shock transformed in the DH10Bac E. coli to obtain the recombinant bacmids, and the bacmids were extracted using the PureLink HiPure Plasmid Miniprep Kit (Invitrogen, Thermo Scientific, Carlsbad, CA, USA). The purity and concentration of the plasmid were measured by a Nanodrop. Sf9 cells were cultured in Sf-900 II SFM medium until the cell density reached 1.5 × 10^6 cells/mL and cell viability was more than 95%. Cells were plated in a 6-well tissue culture plate at a density of 4 × 10^5 cells/mL per well. In total, 2 µg of PRMT5 and MEP50 recombinant bacmid were transfected into each well of cells. After 5 h of transfection, the transfection medium was replaced by 2 mL of Sf-900 II SFM + 100 U P/S per well. The medium was collected and centrifuged at 1000 rpm for 5 min to obtain the supernatant P1 viral stock after 7 days of inoculation at 27.5 °C. To obtain a higher titer of viral stock, P1 viral stock was amplified in a 6-well tissue culture plate containing 2 × 10^6 cells per well. In total, 0.1 MOI of P1 virus stock was added into each well. After 7 days of incubation at 27.5 °C, the cell medium was centrifuged at 1000 rpm for 5 min to obtain the P2 viral stock in the supernatant. The Baculovirus plaque assay was performed to determine the viral titer concentration; the target concentration range was 1 × 10^7–1 × 10^8 IFU/mL.
For the expression of PRMT5 and MEP50, Sf9 insect cells were cultured in suspension at 27.5 °C at a speed of 130 rpm in Expression Systems ESF 921 medium with 100 U P/S. In total, 200 mL of Sf9 cell culture was inoculated with PRMT5 and MEP50 P2 viral stocks when the cell density reached 1.5 × 10^6 cells/mL. After incubation for 72 h at 27.5 °C, the cells were harvested and centrifuged. PRMT5 and MEP50 protein were collected in the cell pellet for further purification. Cell pellets were disrupted twice at 100 psi in 25 mL of cell lysis buffer (50 mM Tris pH 8, 300 mM NaCl, 10% glycerol, 0.1% Triton X-100, 1 mM PMSF). Before the Ni-NTA purification, 10 mL of Ni-NTA resin (EMD Millipore, Burlington, MA, USA) was loaded into a 50 mL column and equilibrated with equilibration buffer (50 mM Tris pH 8, 250 mM NaCl, 30 mM Imidazole, 10% glycerol, 1 mM TCEP, 1 mM PMSF). After 60 min of cell lysate centrifugation at 4 °C at 18,000 rpm, the cell lysate supernatant was incubated with the equilibrated nickel resin. The resin was washed with equilibration buffer and protein was eluted with elution buffer (50 mM Tris pH 8, 250 mM NaCl, 300 mM Imidazole, 10% glycerol, 1 mM TCEP, 1 mM PMSF). For the dialysis of protein, elution samples were loaded into a 10,000 MWCO SnakeSkin (Thermo Scientific, Waltham, MA, USA) dialysis bag in the storage buffer (50 mM Tris pH 8, 250 mM NaCl, 10% glycerol, 1 mM TCEP). […]

PRMT1 = PRMT1 (Homo sapiens, UniProt Q99873); assay: scintillation proximity assay (SPA) of PRMT1 methyltransferase activity; format: biochemical; details: for remaining activity at 10 µM: 0.5 h, remaining activity of the enzyme, single point SPA test, inhibitor 10 μM, read-out: Relative Activity of PRMT1 at 10 μM
PRMT1, sequence (Q99873 whole entry, species assumed): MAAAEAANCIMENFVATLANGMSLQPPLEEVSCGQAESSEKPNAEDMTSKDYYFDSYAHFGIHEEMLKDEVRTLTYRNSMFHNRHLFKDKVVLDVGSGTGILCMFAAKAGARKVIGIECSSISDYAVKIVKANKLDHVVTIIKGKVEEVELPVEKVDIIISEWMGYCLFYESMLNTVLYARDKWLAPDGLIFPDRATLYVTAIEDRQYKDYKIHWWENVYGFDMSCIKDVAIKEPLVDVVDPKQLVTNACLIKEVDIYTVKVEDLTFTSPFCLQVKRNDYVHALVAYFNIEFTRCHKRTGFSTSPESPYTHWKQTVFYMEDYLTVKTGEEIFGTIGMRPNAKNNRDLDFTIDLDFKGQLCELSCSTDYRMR
Description: as §1
Inhibitor was dissolved in water to create a 10 mM stock concentration. This was then diluted in buffer (50 mM HEPES pH 8, 10 mM NaCl, 0.5 mM EDTA, 0.5 mM DTT in H2O) to create a series of working concentrations centered around an anticipated IC50. [H]^3-SAM and substrate were diluted together in buffer to working concentrations of […], respectively. To each well in a 96-well plate, 6 μL of the inhibitor solution was added, with negative and positive controls receiving buffer. In total, 6 μL of the [H]^3-SAM/substrate solution was then added to each well. The enzyme was then diluted in buffer to a working concentration of 0.83 μM, and 18 μL was added to each well, with negative controls receiving 18 μL of buffer. The plate was covered, and the reaction was allowed to run for 30 min and was then quenched with the addition of 30 μL of 100% iPrOH followed by 60 μL of 50% iPrOH in H2O. In total, 10 μL of 20 mg/mL streptavidin-coated scintillant beads were added and the plate was read using a MicroBeta (Perkin Elmer, Waltham, MA, USA) plate reader. The CPM counts in the absence of an inhibitor for each data set were considered as 100% activity. In the absence of the enzyme and inhibitor, the CPM counts in each data set were defined as background (0%).

[3] = tested on: 29 other human methyltransferases; design: method as in PMID 25893041; details: cited from earlier work
[4] = design: method as in PMID 25915199; details: cited from earlier work
BCR-ABL-driven CML = tested on: BCR-ABL-driven CML; design: method as in PMID 27643437; details: murine model of BCR-ABL-driven CML; cited from earlier work
[5] = SPA, concentration-dependent, 0.5 μM H4(1–20)K20biotin, 0.5 μM 3H-SAM, read-out: IC50 PRMT5 (converted)
[6] = SPA, concentration-dependent, read-out: IC50 PRMT1 (converted)
[7] = 0.5 μM H4(1–20)K20biotin, 0.5 μM 3H-SAM

Compound: CCn1c2ccccc2c2cc(CNCc3ccccn3)ccc21 [CMP5]
- potency (PRMT5 [1]): 50 µM

- IC50 (PRMT5 [2]; [5]): 18.9 µM
- IC50 (PRMT1; [6]): > 200 µM
Compound: Nc1ncnc2c1ncn2[C@@H]1O[C@H](Cn2cc(C[C@H](N)C(=O)O)nn2)[C@@H](O)[C@H]1O [Compound 19, (S)-2-amino-3-(1-(((2R,3S,4R,5R)-5-(6-amino-9H-purin-9-yl)-3,4-dihydroxytetrahydrofuran-2-yl)methyl)-1H-1,2,3-triazol-4-yl)propanoic acid]

- remaining activity at 10 µM (PRMT5 [2]; [7]): 26 ± 0.45%
- IC50 (PRMT5 [2]; [5]): 0.88 µM
- selectivity for PRMT5 over PRMT1 (PRMT5 [2]; ratio of IC50 values): approximately 49 fold
- remaining activity at 10 µM (PRMT1): 111 ± 5.5%
- IC50 (PRMT1; [6]): 43.5 µM
Compound: CC(C)[C@H](N)C(=O)OCc1cn(C[C@H]2O[C@@H](n3cnc4c(N)ncnc43)[C@H](O)[C@@H]2O)nn1 [Compound 20, (1-(((2R,3S,4R,5R)-5-(6-amino-9H-purin-9-yl)-3,4-dihydroxytetrahydrofuran-2-yl)methyl)-1H-1,2,3-triazol-4-yl)methyl L-valinate]

- remaining activity at 10 µM (PRMT5 [2]; [7]): 32 ± 3.3%
- remaining activity at 10 µM (PRMT1): 84 ± 55%
Compound: Cc1cccc(NC(=O)CNCc2cn(C[C@H]3O[C@@H](n4cnc5c(N)ncnc54)[C@H](O)[C@@H]3O)nn2)c1 [Compound 21, 2-(((1-(((2R,3S,4R,5R)-5-(6-amino-9H-purin-9-yl)-3,4-dihydroxytetrahydrofuran-2-yl)methyl)-1H-1,2,3-triazol-4-yl)methyl)amino)-N-(m-tolyl)acetamide]

- remaining activity at 10 µM (PRMT5 [2]; [7]): 30 ± 1.7%
- IC50 (PRMT5 [2]; [5]): 1.3 µM
- remaining activity at 10 µM (PRMT1): 94.2 ± 2.2%
- IC50 (PRMT1; [6]): 130 µM
Compound: COC(=O)c1ccc(CNCc2cn(C[C@H]3O[C@@H](n4cnc5c(N)ncnc54)[C@H](O)[C@@H]3O)nn2)cc1 [Compound 22, Methyl 4-((((1-(((2R,3S,4R,5R)-5-(6-amino-9H-purin-9-yl)-3,4-dihydroxytetrahydrofuran-2-yl)methyl)-1H-1,2,3-triazol-4-yl)methyl)amino)methyl)benzoate]

- remaining activity at 10 µM (PRMT5 [2]; [7]): 70 ± 5.6%
- remaining activity at 10 µM (PRMT1): 91.8 ± 16%
Compound: Nc1ncnc2c1ncn2[C@@H]1O[C@H](Cn2cc(CNC(=O)Nc3ccc(Cl)cc3)nn2)[C@@H](O)[C@H]1O [Compound 23]

- remaining activity at 10 µM (PRMT5 [2]; [7]): 40 ± 3.6%
- IC50 (PRMT5 [2]; [5]): 13.2 µM
- remaining activity at 10 µM (PRMT1): 93 ± 1.3%
Compound: Nc1ncnc2c1ncn2[C@@H]1O[C@H](Cn2cc(CNCC(=O)Nc3ccccc3F)nn2)[C@@H](O)[C@H]1O [Compound 24, 2-(((1-(((2R,3S,4R,5R)-5-(6-amino-9H-purin-9-yl)-3,4-dihydroxytetrahydrofuran-2-yl)methyl)-1H-1,2,3-triazol-4-yl)methyl)amino)-N-(2-fluorophenyl)acetamide]

- remaining activity at 10 µM (PRMT5 [2]; [7]): 72 ± 9.6%
- remaining activity at 10 µM (PRMT1): 99.1 ± 13%
Compound: CC(C)(C)OC(=O)NCC(=O)NCc1cn(C[C@H]2O[C@@H](n3cnc4c(N)ncnc43)[C@H](O)[C@@H]2O)nn1 [Compound 25]

- remaining activity at 10 µM (PRMT5 [2]; [7]): 83 ± 2.5%
- remaining activity at 10 µM (PRMT1): 100 ± 4.6%
Compound: Nc1cc2c(cc1F)OCC(=O)N2Cc1cn(C[C@H]2O[C@@H](n3cnc4c(N)ncnc43)[C@H](O)[C@@H]2O)nn1 [Compound 26]

- remaining activity at 10 µM (PRMT5 [2]; [7]): 76 ± 11%
- remaining activity at 10 µM (PRMT1): 77 ± 23%
Compound: CC(C)(C)OC(=O)NCCS(=O)(=O)Cc1cn(C[C@H]2O[C@@H](n3cnc4c(N)ncnc43)[C@H](O)[C@@H]2O)nn1 [Compound 28]

Compound: CC(=O)N[C@@H](CCCNC(=N)N)C(=O)N[C@@H](CCCNC(=N)N)C(=O)N[C@@H](Cc1cn(C[C@H]2O[C@@H](n3cnc4c(N)ncnc43)[C@H](O)[C@@H]2O)nn1)C(=O)N[C@@H](CCCNC(=N)N)C(=O)N[C@@H](CCCNC(=N)N)C(N)=O [Compound 29]
- IC50 (PRMT5 [2]): 53.7 µM
- IC50 (PRMT1): > 400 µM

Compound: CC(=O)N[C@@H](CO)C(=O)NCC(=O)N[C@@H](Cc1cn(C[C@H]2O[C@@H](n3cnc4c(N)ncnc43)[C@H](O)[C@@H]2O)nn1)C(=O)NCC(=O)N[C@@H](CCCCN)C(N)=O [Compound 30]
- IC50 (PRMT5 [2]): 45.6 µM
- IC50 (PRMT1): 46.1 µM

Compound: CCNC(=O)NCCSC[C@H]1O[C@@H](n2cnc3c(N)ncnc32)[C@H](O)[C@@H]1O [DS-437]
- activity towards 29 other human methyltransferases [3]: inactive
- IC50 (PRMT5 [1]; dual PRMT5/PRMT7 inhibitor): 6 µM

Compound: OC(COc1cccc(CNC2CCCC2)c1)CN1CCc2ccccc2C1 (centres unmarked) [EPZ007345]
- potency (PRMT5 [1]): 0.326 µM
- in vitro clearance [4]: poor

Compound: Nc1nc2cc(CC[C@H]3C[C@@H](n4ccc5c(N)ncnc54)[C@H](O)[C@@H]3O)ccc2cc1Br [JNJ-64619178]
- IC50 (PRMT5 [1]; bisubstrate inhibitor): 0.00015 µM

Compound: CCn1c2ccccc2c2cc(CNC3CCCc4ccccc43)ccc21 (centres unmarked) [PJ-68]
- survival (BCR-ABL-driven CML): significant increase in survival
